# “And” between values parts separate entries of the source, which are not always exact repeats. Identical values can stand only once.
# What was measured:
# Format in all cases: biochemical
# AKT = target: T1, AKT (Homo sapiens, UniProt Q9Y243); assay: Kinase inhibition assay (33P transfer), AKT; conditions: Table 2, kinase inhibition class; read-out: AKT3-1
# T1 construct: Kinases are expressed as either kinase domains or full length constructs; made in house
# Outline: (§1)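 Activity was read as 33P incorporation, counted by liquid scintillation after a 0.5% phosphoric acid wash, into poly(Glu,Tyr) 4:1 or poly(Arg,Ser) 3:1 substrates coated on plates. Enzymes were tagged (GST or polyHis) kinase domains or full-length proteins from bacterial or insect-cell expression, sometimes with regulatory polypeptides.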
# Lck = target: T2, Lck (Homo sapiens, UniProt P06239); assay: Kinase inhibition assay (33P transfer), Lck; conditions: Table 3; read-out: Lck-1
# T2 construct: Kinases are expressed as either kinase domains or full length constructs; made in house
# Outline: as §1
# Itk = target: T3, Itk (Homo sapiens, UniProt Q08881); assay: Kinase inhibition assay (33P transfer), Itk; conditions: Table 3; read-out: Itk-1
# T3 construct: Kinases are expressed as either kinase domains or full length constructs; made in house
# T3 sequence (Q08881 1-620): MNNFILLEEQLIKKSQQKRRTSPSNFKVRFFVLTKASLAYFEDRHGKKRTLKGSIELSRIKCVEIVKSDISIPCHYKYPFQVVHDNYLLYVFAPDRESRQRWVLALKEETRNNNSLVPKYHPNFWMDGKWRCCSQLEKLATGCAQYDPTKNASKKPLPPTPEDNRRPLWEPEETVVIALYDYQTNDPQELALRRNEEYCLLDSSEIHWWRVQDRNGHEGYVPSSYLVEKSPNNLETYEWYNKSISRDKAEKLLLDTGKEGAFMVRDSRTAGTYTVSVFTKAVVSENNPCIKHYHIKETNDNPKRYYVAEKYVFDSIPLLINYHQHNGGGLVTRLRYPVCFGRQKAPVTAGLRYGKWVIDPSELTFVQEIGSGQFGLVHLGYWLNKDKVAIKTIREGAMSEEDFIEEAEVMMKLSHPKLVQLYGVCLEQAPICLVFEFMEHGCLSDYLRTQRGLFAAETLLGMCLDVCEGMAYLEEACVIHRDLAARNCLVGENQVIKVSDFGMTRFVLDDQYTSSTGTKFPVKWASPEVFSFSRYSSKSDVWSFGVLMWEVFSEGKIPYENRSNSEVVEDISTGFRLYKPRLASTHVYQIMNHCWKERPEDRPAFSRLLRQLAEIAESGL
# Outline: (§2)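 Read-out: scintillation counts of 33P moved from ATP onto synthetic peptide polymer coated on the well surface, after washing with 0.5% phosphoric acid. Enzymes were tagged (GST or polyHistidine) and came from bacterial or insect-cell expression. IC50 marks 50% loss of incorporated label.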
# EGFR = target: T4, EGFR (Homo sapiens, UniProt P00533); assay: Kinase inhibition assay (33P transfer), EGFR; conditions: Table 2, kinase inhibition class; read-out: EGFR-1
# T4 construct: Kinases are expressed as either kinase domains or full length constructs; made in house
# Outline: as §2
# c-Met = target: T5, c-Met (Homo sapiens, UniProt P08581); assay: Kinase inhibition assay (33P transfer), c-Met; conditions: Table 2, kinase inhibition class; read-out: Met-1
# T5 construct: Kinases are expressed as either kinase domains or full length constructs; made in house
# Outline: as §2
# Kdr = target: T6, Kdr (Homo sapiens, UniProt P35968); assay: Kinase inhibition assay (33P transfer), Kdr; conditions: Table 3; read-out: KDR-1
# T6 construct: Kinases are expressed as either kinase domains or full length constructs; made in house
# Outline: as §1
# Zap-70 = target: T7, Zap-70 (Homo sapiens, UniProt P43403); assay: Kinase inhibition assay (33P transfer), Zap-70; conditions: Table 3; read-out: Zap-1
# T7 construct: Kinases are expressed as either kinase domains or full length constructs; made in house
# T7 sequence (P43403 1-619): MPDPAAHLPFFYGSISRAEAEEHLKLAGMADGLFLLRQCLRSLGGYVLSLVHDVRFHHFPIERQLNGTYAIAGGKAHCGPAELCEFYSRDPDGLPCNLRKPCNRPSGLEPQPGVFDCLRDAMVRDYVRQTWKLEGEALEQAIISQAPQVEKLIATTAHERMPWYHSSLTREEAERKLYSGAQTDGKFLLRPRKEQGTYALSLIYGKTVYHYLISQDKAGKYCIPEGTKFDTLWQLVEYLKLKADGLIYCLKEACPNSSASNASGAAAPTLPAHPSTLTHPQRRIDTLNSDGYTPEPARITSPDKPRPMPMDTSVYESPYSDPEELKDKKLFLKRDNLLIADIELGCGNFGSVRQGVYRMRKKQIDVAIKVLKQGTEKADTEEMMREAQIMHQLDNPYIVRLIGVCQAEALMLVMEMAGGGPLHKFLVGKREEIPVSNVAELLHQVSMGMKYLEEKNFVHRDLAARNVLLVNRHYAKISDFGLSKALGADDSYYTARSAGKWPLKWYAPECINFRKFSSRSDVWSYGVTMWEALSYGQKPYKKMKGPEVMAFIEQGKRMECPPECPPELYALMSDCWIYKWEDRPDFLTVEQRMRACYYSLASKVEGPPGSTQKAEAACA
# Outline: as §1
# IGFR-1 = target: T8, IGFR-1 (Homo sapiens, UniProt P08069); assay: Kinase inhibition assay (33P transfer), IGFR-1; conditions: Table 2, kinase inhibition class
# T8 construct: Kinases are expressed as either kinase domains or full length constructs; made in house
# T8 sequence (P08069 31-1367): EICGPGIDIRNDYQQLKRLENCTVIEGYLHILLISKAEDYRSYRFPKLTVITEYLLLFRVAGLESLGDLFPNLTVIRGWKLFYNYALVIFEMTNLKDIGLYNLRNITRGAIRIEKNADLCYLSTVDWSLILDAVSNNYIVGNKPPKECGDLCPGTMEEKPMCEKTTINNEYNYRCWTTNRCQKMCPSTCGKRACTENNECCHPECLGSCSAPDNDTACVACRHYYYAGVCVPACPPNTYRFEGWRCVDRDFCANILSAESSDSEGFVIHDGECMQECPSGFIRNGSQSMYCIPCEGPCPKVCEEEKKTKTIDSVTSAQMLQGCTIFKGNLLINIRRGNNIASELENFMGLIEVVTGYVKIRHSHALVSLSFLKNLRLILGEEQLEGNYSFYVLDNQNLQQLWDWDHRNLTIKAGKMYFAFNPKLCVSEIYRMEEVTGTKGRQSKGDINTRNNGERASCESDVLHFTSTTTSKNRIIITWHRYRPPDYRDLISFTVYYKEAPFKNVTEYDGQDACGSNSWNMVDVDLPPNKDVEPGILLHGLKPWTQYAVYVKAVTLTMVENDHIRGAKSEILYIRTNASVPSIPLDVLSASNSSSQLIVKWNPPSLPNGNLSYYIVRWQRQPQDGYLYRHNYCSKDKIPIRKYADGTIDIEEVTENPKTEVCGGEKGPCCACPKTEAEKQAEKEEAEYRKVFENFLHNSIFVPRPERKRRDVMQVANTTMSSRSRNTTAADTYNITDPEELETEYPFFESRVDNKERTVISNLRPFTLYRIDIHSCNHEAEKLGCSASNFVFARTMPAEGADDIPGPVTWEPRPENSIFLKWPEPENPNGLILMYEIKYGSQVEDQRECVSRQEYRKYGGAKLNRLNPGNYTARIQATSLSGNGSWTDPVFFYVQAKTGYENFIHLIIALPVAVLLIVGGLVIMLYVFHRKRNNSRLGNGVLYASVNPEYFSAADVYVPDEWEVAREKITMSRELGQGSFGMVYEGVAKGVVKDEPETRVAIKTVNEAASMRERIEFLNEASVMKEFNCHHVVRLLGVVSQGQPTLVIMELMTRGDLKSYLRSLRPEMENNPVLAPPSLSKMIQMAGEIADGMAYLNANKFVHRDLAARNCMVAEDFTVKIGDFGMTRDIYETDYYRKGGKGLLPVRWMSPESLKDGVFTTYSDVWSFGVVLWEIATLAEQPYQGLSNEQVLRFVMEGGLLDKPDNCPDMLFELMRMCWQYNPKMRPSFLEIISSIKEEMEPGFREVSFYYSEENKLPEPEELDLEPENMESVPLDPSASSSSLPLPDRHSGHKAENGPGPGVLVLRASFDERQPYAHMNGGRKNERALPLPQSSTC
# T6 sequence (P35968 20-1356, species assumed): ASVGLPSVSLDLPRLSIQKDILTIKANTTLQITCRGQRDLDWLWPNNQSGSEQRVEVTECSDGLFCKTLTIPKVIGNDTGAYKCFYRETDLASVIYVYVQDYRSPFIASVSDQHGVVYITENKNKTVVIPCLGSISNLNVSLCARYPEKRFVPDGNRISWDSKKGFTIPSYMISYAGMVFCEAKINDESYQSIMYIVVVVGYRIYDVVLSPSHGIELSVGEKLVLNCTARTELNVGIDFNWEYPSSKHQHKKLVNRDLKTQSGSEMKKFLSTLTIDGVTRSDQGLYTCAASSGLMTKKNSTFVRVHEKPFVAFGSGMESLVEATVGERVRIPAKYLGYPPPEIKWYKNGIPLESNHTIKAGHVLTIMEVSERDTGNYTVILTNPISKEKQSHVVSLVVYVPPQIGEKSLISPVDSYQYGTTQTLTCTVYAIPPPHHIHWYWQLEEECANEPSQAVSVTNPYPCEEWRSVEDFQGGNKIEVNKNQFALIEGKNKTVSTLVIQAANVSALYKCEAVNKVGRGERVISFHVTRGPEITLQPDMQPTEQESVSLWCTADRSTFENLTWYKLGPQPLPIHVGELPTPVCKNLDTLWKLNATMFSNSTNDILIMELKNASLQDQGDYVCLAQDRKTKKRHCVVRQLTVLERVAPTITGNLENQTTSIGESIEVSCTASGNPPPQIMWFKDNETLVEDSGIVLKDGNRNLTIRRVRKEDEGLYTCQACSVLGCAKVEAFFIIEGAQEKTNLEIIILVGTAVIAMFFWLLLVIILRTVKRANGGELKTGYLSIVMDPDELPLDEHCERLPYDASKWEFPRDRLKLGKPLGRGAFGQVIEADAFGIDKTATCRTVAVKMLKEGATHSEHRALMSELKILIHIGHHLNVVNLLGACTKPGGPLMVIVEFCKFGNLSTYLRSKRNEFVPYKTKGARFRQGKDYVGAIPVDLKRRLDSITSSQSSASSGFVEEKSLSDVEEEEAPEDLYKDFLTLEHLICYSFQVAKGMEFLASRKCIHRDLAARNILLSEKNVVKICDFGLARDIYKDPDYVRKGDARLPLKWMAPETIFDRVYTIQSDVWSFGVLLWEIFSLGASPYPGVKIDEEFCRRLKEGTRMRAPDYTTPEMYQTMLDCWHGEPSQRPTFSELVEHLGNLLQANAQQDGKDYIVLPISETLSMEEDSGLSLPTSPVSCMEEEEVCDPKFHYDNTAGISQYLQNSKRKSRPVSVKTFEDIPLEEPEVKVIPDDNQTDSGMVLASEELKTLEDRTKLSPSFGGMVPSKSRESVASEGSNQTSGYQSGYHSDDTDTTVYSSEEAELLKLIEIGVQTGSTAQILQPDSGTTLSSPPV
# T2 sequence (P06239 whole entry, species assumed, the tested form may be a part): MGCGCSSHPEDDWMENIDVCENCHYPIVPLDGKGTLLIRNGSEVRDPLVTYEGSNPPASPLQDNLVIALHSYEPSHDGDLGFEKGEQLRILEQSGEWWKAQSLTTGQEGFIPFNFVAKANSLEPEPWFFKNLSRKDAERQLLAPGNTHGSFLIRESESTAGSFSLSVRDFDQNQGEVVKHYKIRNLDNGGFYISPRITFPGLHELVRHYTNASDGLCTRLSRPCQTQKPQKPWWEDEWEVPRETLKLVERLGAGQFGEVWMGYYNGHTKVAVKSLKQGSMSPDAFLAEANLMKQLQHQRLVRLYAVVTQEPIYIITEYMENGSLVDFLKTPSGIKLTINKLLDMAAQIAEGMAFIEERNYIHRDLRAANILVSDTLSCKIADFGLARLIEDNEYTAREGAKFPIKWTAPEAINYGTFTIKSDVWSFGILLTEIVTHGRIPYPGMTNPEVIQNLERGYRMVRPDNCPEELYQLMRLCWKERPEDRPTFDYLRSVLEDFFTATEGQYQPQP
# T5 sequence (P08581 25-1390): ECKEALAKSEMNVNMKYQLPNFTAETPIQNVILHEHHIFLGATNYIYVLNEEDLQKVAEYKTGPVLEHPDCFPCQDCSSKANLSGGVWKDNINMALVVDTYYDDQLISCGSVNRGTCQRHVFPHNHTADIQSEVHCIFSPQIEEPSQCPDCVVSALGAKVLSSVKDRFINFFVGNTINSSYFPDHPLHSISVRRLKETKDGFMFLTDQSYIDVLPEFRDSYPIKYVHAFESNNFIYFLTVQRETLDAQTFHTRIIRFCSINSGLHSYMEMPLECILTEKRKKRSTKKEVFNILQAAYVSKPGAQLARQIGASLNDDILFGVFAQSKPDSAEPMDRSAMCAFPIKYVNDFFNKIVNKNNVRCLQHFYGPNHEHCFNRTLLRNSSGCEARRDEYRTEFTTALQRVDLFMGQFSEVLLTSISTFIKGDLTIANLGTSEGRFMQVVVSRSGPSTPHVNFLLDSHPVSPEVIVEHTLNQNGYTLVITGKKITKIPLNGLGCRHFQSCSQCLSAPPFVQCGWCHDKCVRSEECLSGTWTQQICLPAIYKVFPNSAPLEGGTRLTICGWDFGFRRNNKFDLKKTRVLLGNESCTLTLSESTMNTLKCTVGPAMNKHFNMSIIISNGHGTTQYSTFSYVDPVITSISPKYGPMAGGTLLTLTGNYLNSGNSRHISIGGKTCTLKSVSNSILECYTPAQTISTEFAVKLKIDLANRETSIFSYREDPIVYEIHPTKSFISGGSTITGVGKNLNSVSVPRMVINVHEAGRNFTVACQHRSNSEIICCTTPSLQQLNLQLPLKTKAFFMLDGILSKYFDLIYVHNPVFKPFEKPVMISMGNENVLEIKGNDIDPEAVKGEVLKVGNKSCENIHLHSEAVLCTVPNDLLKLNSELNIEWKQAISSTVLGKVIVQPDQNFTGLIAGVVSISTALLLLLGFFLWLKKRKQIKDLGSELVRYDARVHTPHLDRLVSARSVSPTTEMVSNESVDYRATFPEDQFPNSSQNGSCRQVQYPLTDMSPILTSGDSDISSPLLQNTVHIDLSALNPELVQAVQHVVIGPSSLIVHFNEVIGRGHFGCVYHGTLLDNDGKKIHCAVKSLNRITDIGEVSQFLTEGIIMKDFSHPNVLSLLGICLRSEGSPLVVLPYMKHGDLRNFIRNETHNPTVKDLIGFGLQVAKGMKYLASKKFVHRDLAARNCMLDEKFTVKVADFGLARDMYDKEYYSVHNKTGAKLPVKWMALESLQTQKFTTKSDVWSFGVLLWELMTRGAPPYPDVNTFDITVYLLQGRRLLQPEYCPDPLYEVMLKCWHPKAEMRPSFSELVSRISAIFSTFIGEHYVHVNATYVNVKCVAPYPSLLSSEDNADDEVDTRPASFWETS
# T1 sequence (Q9Y243 whole entry, the tested form may be a part): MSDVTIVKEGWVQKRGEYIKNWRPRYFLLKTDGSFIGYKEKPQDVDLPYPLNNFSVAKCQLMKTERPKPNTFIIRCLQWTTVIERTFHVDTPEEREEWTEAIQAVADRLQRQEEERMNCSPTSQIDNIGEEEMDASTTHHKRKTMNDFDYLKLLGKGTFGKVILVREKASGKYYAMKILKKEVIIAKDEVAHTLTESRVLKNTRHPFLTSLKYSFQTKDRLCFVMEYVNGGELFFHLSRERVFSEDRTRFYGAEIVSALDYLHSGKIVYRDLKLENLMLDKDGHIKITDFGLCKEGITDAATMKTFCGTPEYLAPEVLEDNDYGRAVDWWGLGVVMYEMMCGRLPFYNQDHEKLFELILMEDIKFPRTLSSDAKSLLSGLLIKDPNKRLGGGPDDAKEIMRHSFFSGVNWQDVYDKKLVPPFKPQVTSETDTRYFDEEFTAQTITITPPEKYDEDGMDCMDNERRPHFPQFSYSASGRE
IC50 (AKT) [µM],IC50 (Lck),IC50 (Itk) [µM],IC50 (EGFR),IC50 (c-Met) [µM],IC50 (Kdr),IC50 (Zap-70) [µM],IC50 (IGFR-1) [µM],Compound
> 15,> 15 µM,> 15,> 15 µM,> 15,> 15 µM,> 15,> 15,O=[N+]([O-])c1cccc(Nc2ncnc(-c3cccs3)n2)c1 [Compound 352]
> 13.7,> 13.7 µM,> 13.7,> 13.7 µM,> 13.7,> 13.7 µM,> 13.7,> 13.7,CC(C)(C)OC(=O)NCCCNc1ncnc(-c2ccccc2)n1 [Compound 17]
> 15.4,> 15.4 µM,> 15.4,> 15.4 µM,> 15.4,12 to 15.4 µM,> 15.4,> 15.4,NC(=O)c1cccc(Nc2ncnc(-c3ccccc3)n2)c1 [Compound 151]
> 9.4,> 9.4 µM,> 9.4,> 9.4 µM,> 9.4,> 9.4 µM,> 9.4,> 9.4,COc1ccc2c(c1)c(CCN(C)C)cn2-c1ncnc(Nc2cc(OC)c(OC)c(OC)c2)n1 [Compound 333]
> 14.3,> 14.3 µM,> 14.3,> 14.3 µM,> 14.3,> 14.3 µM,> 14.3,> 14.3,COc1ccc(Nc2ncnc(-c3cccs3)n2)cc1OC [Compound 357]
> 12,> 12 µM,> 12,> 12 µM,> 12,> 12 µM,> 12,> 12,COc1cc(Nc2ncnc(-c3ccnc(Cl)c3)n2)cc(OC)c1OC [Compound 331]
> 13.7,> 13.7 µM,> 13.7,> 13.7 µM,> 13.7,> 13.7 µM,> 13.7,> 13.7,COc1cc(C)c(Nc2ncnc(-c3cccs3)n2)cc1OC [Compound 359]
> 13.3,1.18 to 7.07 µM,> 13.3,> 13.3 µM,> 13.3,1.18 to 7.07 µM,> 13.3,> 13.3,COc1cc(Nc2ncnc(-c3ccncc3)n2)cc(OC)c1OC [Compound 42]
> 16.5,> 16.5 µM,> 16.5,> 16.5 µM,> 16.5,> 16.5 µM,> 16.5,> 16.5,Fc1cccc(Nc2ncnc(-c3cccs3)n2)c1 [Compound 1073]
> 11.9,1.06 to 6.34 µM,1.06 to 6.34,> 11.9 µM,> 11.9,> 11.9 µM,> 11.9,6.34 to 9.25,COc1cc(Nc2ncnc(-n3ccc4cccnc43)n2)cc(OC)c1OC [Compound 327]
> 18.2,> 18.2 µM,> 18.2,> 18.2 µM,> 18.2,14.2 to 18.2 µM,9.73 to 14.2,> 18.2,Nc1nc2ccccc2n1-c1ncnc(Cl)n1 [Compound 1029]
10.1 to 13,> 13 µM,> 13,> 13 µM,> 13,> 13 µM,> 13,> 13,COc1cc(Nc2ncnc(N3CCOCC3)n2)cc(OC)c1OC [Compound 209]
> 10.6,> 10.6 µM,> 10.6,> 10.6 µM,> 10.6,0.945 to 5.67 µM,> 10.6,> 10.6,COc1cc(Nc2ncnc(N3CCN(c4ccccn4)CC3)n2)cc(OC)c1OC [Compound 213]
> 12.1,1.08 to 6.46 µM and > 12.1 µM,> 12.1,9.42 to 12.1 µM and > 12.1 µM,> 12.1,> 12.1 µM and 6.46 to 9.42 µM,> 12.1,> 12.1,COc1cc(Nc2ncnc(Nc3cc(C)nn3C)n2)cc(OC)c1OC [Compound 393]
> 10,> 10 µM,> 10,> 10 µM,> 10,0.892 to 5.35 µM,> 10,> 10,FC(F)C(F)(F)Oc1cccc(Nc2ncnc(-c3ccnc(N4CCCCC4)c3)n2)c1 [Compound 346]
> 15.8,> 15.8 µM,> 15.8,> 15.8 µM,> 15.8,> 15.8 µM,> 15.8,> 15.8,COc1cccc(Nc2ncnc(-c3cccs3)n2)n1 [Compound 362]
> 17.6,> 17.6 µM,> 17.6,> 17.6 µM,> 17.6,> 17.6 µM,> 17.6,> 17.6,c1csc(-c2ncnc(Nc3ccncc3)n2)c1 [Compound 363]
> 10.6,0.938 to 5.63 µM,> 10.6,> 10.6 µM,8.21 to 10.6,0.938 to 5.63 µM,8.21 to 10.6,0.938 to 5.63,COc1cccc(NC(=O)Nc2ncnc(Nc3cc(OC)c(OC)c(OC)c3)n2)c1 [Compound 21]
10.3 to 13.3,1.18 to 7.07 µM,> 13.3,> 13.3 µM,10.3 to 13.3,10.3 to 13.3 µM,> 13.3,> 13.3,c1csc(-c2ncnc(Nc3ccc(N4CCOCC4)cc3)n2)c1 [Compound 349]
> 13.7,> 13.7 µM,> 13.7,> 13.7 µM,> 13.7,7.31 to 10.7 µM,> 13.7,> 13.7,COc1cc(Nc2ncnc(-n3ccnc3)n2)cc(OC)c1OC [Compound 183]
> 15.2,> 15.2 µM,> 15.2,> 15.2 µM,> 15.2,1.35 to 8.09 µM,> 15.2,> 15.2,"COc1cc(Nc2ncnc(Cl)n2)cc(OC)c1OC [Compound 924, 2-chloro-4-(3′,4′,5′-trimethoxyanilino)-1,3,5-triazine]"
> 16.2,1.44 to 8.66 µM,> 16.2,> 16.2 µM,> 16.2,> 16.2 µM,> 16.2,> 16.2,COc1cc(Nc2ncnc(N)n2)cc(OC)c1OC [Compound 925]
> 10.7,0.947 to 5.68 µM,> 10.7,> 10.7 µM,0.947 to 5.68,< 0.947 µM,> 10.7,0.947 to 5.68,COc1cc(Nc2ncnc(-c3ccnc(N4CCCCC4)c3)n2)cc(OC)c1OC [Compound 345]
> 19.5,> 19.5 µM,> 19.5,> 19.5 µM,> 19.5,> 19.5 µM,> 19.5,> 19.5,OCCCNc1ncnc(-c2ccccc2)n1 [Compound 971]
> 12.5,> 12.5 µM,> 12.5,> 12.5 µM,> 12.5,> 12.5 µM,> 12.5,> 12.5,c1ccc(COc2cccc(Nc3ncnc(-c4cccs4)n3)c2)cc1 [Compound 361]

# Reference: patent US7074789B2, “Kinase inhibitors” (Amgen Inc., priority 1999, dated 2006)
